Nc1nnc[nH]1
solubility (mole fraction)
Settings	in 1,4-dioxane	in 2-butanone	in NMP	in acetone	in acetonitrile	in ethanol	in ethyl acetate	in isopropanol	in methanol	in n-propanol
283.15 K	–	0.00169	0.145	0.00476	0.00061	0.0112	0.00147	0.00423	0.0306	0.0057
285.65 K	–	0.00191	0.152	0.00515	0.000713	0.0126	0.00168	0.00515	0.0329	0.007
288.15 K	0.00325	0.00214	0.159	0.00564	0.000871	0.0143	0.0019	0.00634	0.0353	0.00835
290.65 K	0.0037	0.00242	0.166	0.00617	0.00106	0.0165	0.00213	0.00755	0.038	0.00983
293.15 K	0.00404	0.00272	0.173	0.00672	0.00127	0.0187	0.00237	0.00912	0.0408	0.0116
295.65 K	0.00449	0.00306	0.181	0.00727	0.00153	0.0213	0.00263	0.0111	0.0437	0.0135
298.15 K	0.00506	0.00344	0.189	0.00793	0.00185	0.0239	0.00286	0.0135	0.0471	0.0162
300.65 K	0.00569	0.00386	0.198	0.00869	0.00224	0.0269	0.00313	0.0161	0.0501	0.0189
303.15 K	0.0064	0.00438	0.206	0.0095	0.00273	0.0302	0.00345	0.0191	0.0537	0.022
305.65 K	0.00708	0.00497	0.215	0.0104	0.00327	0.0338	0.00383	0.0217	0.0574	0.0255
308.15 K	0.00785	0.0056	0.225	0.0114	0.00384	0.0378	0.00421	0.0259	0.0613	0.0293
310.65 K	0.00865	0.00626	0.234	0.0123	0.00453	0.042	0.00458	0.0304	0.0654	0.0339
313.15 K	0.00952	0.00698	0.244	0.0133	0.00528	0.0469	0.00503	0.035	0.0701	0.0388
315.65 K	0.0103	0.00768	0.255	0.0142	0.00614	0.0516	0.00549	0.0398	0.0745	0.0448
318.15 K	0.0114	0.00844	0.267	0.0152	0.00698	0.0569	0.00602	0.0453	0.0794	0.0512
